The record followed here is article PMC10951314 (Nature Communications, 2024).

For one assay, the target named is T1, MavL42-435-UbVME (Legionella pneumophila, UniProt Q5ZSJ1).
T1 construct: gene lpg2526

The target in the next assay is T2, MavL42-435 (Legionella pneumophila, UniProt Q5ZSJ1).
T2 construct: gene lpg2526
T2 sequence (Q5ZSJ1 42-435 limits assumed): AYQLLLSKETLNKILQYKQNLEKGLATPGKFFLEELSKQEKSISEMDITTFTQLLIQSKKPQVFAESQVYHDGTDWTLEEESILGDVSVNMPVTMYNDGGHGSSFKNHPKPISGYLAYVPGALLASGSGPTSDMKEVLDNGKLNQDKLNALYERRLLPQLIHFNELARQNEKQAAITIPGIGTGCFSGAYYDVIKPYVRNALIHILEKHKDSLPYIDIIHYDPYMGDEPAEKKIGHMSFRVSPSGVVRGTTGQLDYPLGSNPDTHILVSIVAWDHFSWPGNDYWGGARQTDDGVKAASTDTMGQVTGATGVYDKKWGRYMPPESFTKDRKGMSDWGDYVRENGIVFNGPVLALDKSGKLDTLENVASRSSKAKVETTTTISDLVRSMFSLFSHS

As for `Nc1ncnc2c1ncn2[C@@H]1O[C@H](COP(=O)(O)OP(=O)(O)OC[C@H]2OC(O)[C@H](O)[C@@H]2O)[C@@H](O)[C@H]1O` (some centres unmarked) [ADPR], at MavL42-435-UbVME, the “X-ray crystal structure, 2.15 Å (crystal soak)” value is recorded as “we observed electron density for ADPR in one of the MavL-UbVME subunits”. Also, on MavL42-435, the Kd (in general, the constant that tells how readily two partners part at equilibrium) is 25.8 µM.
